Measured values: patent US20240376121A1, “COMPOUNDS AND USES THEREOF” (Foghorn Therapeutics Inc., priority 2021, published 2024)

Columns and labels:
[1] = biological target: T1, HiBit-BRM fusion protein (Homo sapiens, UniProt P51531); test: HiBiT-BRM cell-based degradation assay (Nano-Glo HiBiT Lytic Detection); details: stable HeLa cell line expressing HiBiT-BRM, 24 h incubation; for BRM HiBit Degradation Maximum (%): top dose 30 μM; for DC50: read-out: BRM HiBit Degradation IC50
T1 construct: expressed in transfected cells
Method in brief: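 HeLa cells stably expressing HiBiT-BRM were dosed with compounds (10-point 3-fold dilutions, 30 μM final top dose, duplicate) for 24 h. HiBiT signal was read by lytic LgBiT complementation luminescence. Percent degradation was normalised to DMSO (high control) and 2 μM of a reference BRM/BRG1 degrader (low control).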

[2] = biological target: T2, HiBit-BRG1 fusion protein (Homo sapiens, UniProt P51532); test: HiBiT-BRG1 cell-based degradation assay (Nano-Glo HiBiT Lytic Detection); details: stable HeLa cell line expressing HiBit-BRG1 and LgBit, 24 h incubation; for Dmax: top dose 30 μM, read-out: BRG1 HiBit Degradation Maximum (%); for DC50: read-out: BRMG1 HiBit Degradation IC50
T2 construct: expressed in transfected cells
Method in brief: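 HeLa cells stably expressing HiBiT-BRG1 and LgBiT treated 24 h with 10-point 3-fold dilutions (top 30 μM, duplicate). Luminescence read after Nano-Glo HiBiT lytic reagent; % degradation relative to DMSO (high control) and 2 μM reference BRM/BRG1 degrader (low control).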

T1 sequence (P51531 whole entry, the tested form may be a part): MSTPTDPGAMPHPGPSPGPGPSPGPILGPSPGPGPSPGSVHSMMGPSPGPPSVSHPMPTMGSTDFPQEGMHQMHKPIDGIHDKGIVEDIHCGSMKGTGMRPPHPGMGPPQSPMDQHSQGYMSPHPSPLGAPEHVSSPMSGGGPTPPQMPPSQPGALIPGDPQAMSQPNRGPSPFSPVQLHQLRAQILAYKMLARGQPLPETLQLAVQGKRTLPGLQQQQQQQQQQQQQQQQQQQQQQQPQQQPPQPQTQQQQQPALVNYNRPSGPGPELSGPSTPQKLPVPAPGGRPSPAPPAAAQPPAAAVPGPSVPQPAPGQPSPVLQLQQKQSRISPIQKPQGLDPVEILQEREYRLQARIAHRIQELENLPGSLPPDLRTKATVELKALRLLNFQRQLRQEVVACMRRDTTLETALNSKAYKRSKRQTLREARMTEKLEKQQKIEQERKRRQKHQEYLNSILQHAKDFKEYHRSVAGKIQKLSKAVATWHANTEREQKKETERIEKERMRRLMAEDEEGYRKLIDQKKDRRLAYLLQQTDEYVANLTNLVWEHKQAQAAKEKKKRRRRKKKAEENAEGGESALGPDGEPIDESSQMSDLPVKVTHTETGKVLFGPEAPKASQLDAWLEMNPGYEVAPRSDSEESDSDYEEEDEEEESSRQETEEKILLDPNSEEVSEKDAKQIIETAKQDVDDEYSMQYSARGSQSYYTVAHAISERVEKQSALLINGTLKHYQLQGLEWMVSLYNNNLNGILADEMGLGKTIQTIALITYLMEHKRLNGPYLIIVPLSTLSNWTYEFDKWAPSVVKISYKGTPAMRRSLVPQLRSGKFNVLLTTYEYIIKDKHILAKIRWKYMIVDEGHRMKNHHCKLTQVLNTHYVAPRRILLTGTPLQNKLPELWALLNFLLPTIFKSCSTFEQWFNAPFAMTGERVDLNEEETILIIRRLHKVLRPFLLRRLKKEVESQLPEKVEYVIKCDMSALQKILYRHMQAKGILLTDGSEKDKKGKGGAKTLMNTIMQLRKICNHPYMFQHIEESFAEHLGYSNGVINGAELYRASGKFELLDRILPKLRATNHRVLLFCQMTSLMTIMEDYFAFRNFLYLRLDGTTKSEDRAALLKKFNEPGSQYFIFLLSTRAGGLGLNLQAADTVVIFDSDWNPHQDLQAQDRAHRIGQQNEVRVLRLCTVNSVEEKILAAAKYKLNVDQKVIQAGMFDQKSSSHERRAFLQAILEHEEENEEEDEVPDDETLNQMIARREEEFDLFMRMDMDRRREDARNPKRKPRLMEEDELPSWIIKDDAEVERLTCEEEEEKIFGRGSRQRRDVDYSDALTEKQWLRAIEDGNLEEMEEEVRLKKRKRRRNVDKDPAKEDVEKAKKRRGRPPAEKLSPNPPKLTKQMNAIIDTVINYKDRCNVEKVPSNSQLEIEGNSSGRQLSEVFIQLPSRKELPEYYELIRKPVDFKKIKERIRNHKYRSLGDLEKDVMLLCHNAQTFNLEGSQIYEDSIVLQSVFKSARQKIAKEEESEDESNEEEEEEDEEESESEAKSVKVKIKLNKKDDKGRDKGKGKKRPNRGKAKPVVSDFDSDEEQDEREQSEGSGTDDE
T2 sequence (P51532 whole entry, the tested form may be a part): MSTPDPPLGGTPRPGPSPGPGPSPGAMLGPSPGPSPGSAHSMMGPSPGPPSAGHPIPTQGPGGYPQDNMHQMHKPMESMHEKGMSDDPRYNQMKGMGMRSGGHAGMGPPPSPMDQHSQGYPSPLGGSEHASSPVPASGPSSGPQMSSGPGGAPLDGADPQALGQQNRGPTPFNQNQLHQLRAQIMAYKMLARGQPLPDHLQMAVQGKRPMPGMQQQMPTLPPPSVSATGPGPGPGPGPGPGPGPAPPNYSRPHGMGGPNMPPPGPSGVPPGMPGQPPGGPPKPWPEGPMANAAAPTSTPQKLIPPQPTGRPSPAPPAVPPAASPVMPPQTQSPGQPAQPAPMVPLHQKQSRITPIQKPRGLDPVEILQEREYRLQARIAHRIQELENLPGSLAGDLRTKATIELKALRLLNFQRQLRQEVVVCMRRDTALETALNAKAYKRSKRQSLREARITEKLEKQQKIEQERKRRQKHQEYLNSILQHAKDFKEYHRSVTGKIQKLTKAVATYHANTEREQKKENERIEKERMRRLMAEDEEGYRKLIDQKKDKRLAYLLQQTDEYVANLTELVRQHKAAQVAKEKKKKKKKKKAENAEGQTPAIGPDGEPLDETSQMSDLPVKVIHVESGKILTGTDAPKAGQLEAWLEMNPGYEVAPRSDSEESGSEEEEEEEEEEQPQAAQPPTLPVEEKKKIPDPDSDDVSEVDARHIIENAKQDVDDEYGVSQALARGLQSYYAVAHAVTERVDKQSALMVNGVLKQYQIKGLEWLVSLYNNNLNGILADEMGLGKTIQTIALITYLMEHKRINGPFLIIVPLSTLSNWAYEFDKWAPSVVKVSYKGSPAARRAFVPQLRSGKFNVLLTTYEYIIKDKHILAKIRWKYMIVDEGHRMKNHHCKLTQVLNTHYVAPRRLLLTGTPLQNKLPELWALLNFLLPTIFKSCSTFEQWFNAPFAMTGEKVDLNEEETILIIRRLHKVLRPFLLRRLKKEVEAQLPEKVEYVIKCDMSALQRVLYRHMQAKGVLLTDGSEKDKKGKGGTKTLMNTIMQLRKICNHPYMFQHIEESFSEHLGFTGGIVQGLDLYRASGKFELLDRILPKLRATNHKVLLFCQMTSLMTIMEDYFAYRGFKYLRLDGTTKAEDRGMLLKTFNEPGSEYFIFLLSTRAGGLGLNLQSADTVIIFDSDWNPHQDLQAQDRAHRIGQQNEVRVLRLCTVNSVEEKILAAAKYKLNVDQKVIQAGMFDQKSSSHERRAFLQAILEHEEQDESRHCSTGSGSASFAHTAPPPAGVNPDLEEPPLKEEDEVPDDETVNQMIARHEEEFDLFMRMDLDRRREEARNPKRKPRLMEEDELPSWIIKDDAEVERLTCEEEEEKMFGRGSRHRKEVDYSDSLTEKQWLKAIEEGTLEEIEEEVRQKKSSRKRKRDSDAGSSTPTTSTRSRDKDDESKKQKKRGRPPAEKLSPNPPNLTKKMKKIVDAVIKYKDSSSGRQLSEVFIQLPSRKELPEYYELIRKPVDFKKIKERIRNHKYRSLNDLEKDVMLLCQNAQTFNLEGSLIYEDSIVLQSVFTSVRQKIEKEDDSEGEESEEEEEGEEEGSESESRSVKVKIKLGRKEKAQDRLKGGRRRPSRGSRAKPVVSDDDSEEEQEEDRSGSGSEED

| Compound | BRM HiBit Degradation Maximum (%) [1] | DC50 [1] | Dmax [2] | DC50 [2] |
| --- | --- | --- | --- | --- |
| Cc1ncsc1-c1ccc(CNC(=O)[C@@H]2C[C@@H](O)CN2C(=O)[C@@H](NC(=O)C2(F)CC2)C(C)(C)C)c(OCCCN2CCC(c3sc4nnc(-c5ccccc5O)cc4c3C)CC2)c1 [Compound 81, (2S,4R)-1-((S)-2-(1-fluorocyclopropane-1-carboxamido)-3,3-dimethylbutanoyl)-4-hydroxy-N-(2-(3-(4-(3-(2-hydroxyphenyl)-5-methylthieno[2,3-c]pyridazin-6-yl)piperidin-1-yl)propoxy)-4-(4-methylthiazol-5-yl)benzyl)pyrrolidine-2-carboxamide] | B (“B” indicates maximum degradation ≥ 50%) | ≥ 10 nM | < 50% | ≥ 10 nM |
| Cc1ncsc1-c1ccc(CNC(=O)[C@@H]2C[C@@H](O)CN2C(=O)[C@@H](NC(=O)C2(F)CC2)C(C)(C)C)c(OCC(=O)N2CCC(c3sc4nnc(-c5ccccc5O)cc4c3C)CC2)c1 [Compound 82, (2S,4R)-1-((S)-2-(1-fluorocyclopropane-1-carboxamido)-3,3-dimethylbutanoyl)-4-hydroxy-N-(2-(2-(4-(3-(2-hydroxyphenyl)-5-methylthieno[2,3-c]pyridazin-6-yl)piperidin-1-yl)-2-oxoethoxy)-4-(4-methylthiazol-5-yl)benzyl)pyrrolidine-2-carboxamide] | C (“C” indicates maximum degradation < 50%) | ≥ 1000 nM | < 50% | ≥ 1000 nM |
| Cc1ncsc1-c1ccc(CNC(=O)[C@@H]2C[C@@H](O)CN2C(=O)[C@@H](NC(=O)C2(F)CC2)C(C)(C)C)c(OCCN2CCC(c3sc4nnc(-c5ccccc5O)cc4c3C)CC2)c1 [Compound 83, (2S,4R)-1-((S)-2-(1-fluorocyclopropane-1-carboxamido)-3,3-dimethylbutanoyl)-4-hydroxy-N-(2-(2-(4-(3-(2-hydroxyphenyl)-5-methylthieno[2,3-c]pyridazin-6-yl)piperidin-1-yl)ethoxy)-4-(4-methylthiazol-5-yl)benzyl)pyrrolidine-2-carboxamide] | C (“C” indicates maximum degradation < 50%) | ≥ 1000 nM | < 50% | ≥ 1000 nM |
| Cc1ncsc1-c1ccc(CNC(=O)[C@@H]2C[C@@H](O)CN2C(=O)[C@@H](NC(=O)CCCCC(=O)N2CCC(c3cc4nnc(-c5ccccc5O)cc4s3)CC2)C(C)(C)C)cc1 [Compound 84, (2S,4R)-4-hydroxy-1-((S)-2-(6-(4-(3-(2-hydroxyphenyl)thieno[3,2-c]pyridazin-6-yl)piperidin-1-yl)-6-oxohexanamido)-3,3-dimethylbutanoyl)-N-(4-(4-methylthiazol-5-yl)benzyl)pyrrolidine-2-carboxamide] | C (“C” indicates maximum degradation < 50%) | ≥ 100 nM | < 50% | ≥ 1000 nM |
| Cc1ncsc1-c1ccc(CNC(=O)[C@@H]2C[C@@H](O)CN2C(=O)[C@@H](NC(=O)[C@H]2CC[C@H](c3cnc(N4CCC(c5sc6nnc(-c7ccccc7O)cc6c5C)CC4)nc3)CC2)C(C)(C)C)cc1 [Compound 85, (2S,4R)-4-hydroxy-1-((S)-2-((1r,4S)-4-(2-(4-(3-(2-hydroxyphenyl)-5-methylthieno[2,3-c]pyridazin-6-yl)piperidin-1-yl)pyrimidin-5-yl)cyclohexane-1-carboxamido)-3,3-dimethylbutanoyl)-N-(4-(4-methylthiazol-5-yl)benzyl)pyrrolidine-2-carboxamide] | A (“A” indicates maximum degradation ≥ 75%) | ≥ 10 nM | ≥ 75% | ≥ 100 nM |
| Cc1ncsc1-c1ccc(CNC(=O)[C@@H]2C[C@@H](O)CN2C(=O)[C@@H](NC(=O)[C@H]2CC[C@@H](c3cnc(N4CCC(c5sc6nnc(-c7ccccc7O)cc6c5C)CC4)nc3)CC2)C(C)(C)C)cc1 [Compound 86, (2S,4R)-4-hydroxy-1-((S)-2-((1s,4R)-4-(2-(4-(3-(2-hydroxyphenyl)-5-methylthieno[2,3-c]pyridazin-6-yl)piperidin-1-yl)pyrimidin-5-yl)cyclohexane-1-carboxamido)-3,3-dimethylbutanoyl)-N-(4-(4-methylthiazol-5-yl)benzyl)pyrrolidine-2-carboxamide] | C (“C” indicates maximum degradation < 50%) | ≥ 1000 nM | < 50% | ≥ 1000 nM |
| Cc1ncsc1-c1ccc([C@H](C)NC(=O)[C@@H]2C[C@@H](O)CN2C(=O)[C@@H](c2cc(N3CCC(N4CCC(c5cc6nnc(-c7ccccc7O)cc6s5)CC4)CC3)no2)C(C)C)cc1 [Compound 87, (2S,4R)-4-hydroxy-1-((R)-2-(3-(4-(3-(2-hydroxyphenyl)thieno[3,2-c]pyridazin-6-yl)-[1,4′-bipiperidin]-1′-yl)isoxazol-5-yl)-3-methylbutanoyl)-N-((S)-1-(4-(4-methylthiazol-5-yl)phenyl)ethyl)pyrrolidine-2-carboxamide] | A (“A” indicates maximum degradation ≥ 75%) | < 10 nM | < 50% | ≥ 1000 nM |
| Cc1ncsc1-c1ccc([C@H](C)NC(=O)[C@@H]2C[C@@H](O)CN2C(=O)[C@@H](c2cc(OCCN3CC4(CC(c5sc6nnc(-c7ccccc7O)cc6c5C)C4)C3)no2)C(C)C)cc1 [Compound 88, (2S,4R)-4-hydroxy-1-((R)-2-(3-(2-(6-(3-(2-hydroxyphenyl)-5-methylthieno[2,3-c]pyridazin-6-yl)-2-azaspiro[3.3]heptan-2-yl)ethoxy)isoxazol-5-yl)-3-methylbutanoyl)-N-((S)-1-(4-(4-methylthiazol-5-yl)phenyl)ethyl)pyrrolidine-2-carboxamide] | A (“A” indicates maximum degradation ≥ 75%) | ≥ 10 nM | < 50% | ≥ 1000 nM |
| Cc1ncsc1-c1ccc([C@H](C)NC(=O)[C@@H]2C[C@@H](O)CN2C(=O)[C@@H](c2cc(OCCN3CCC(c4c(C)sc5nnc(-c6ccccc6O)cc45)CC3)no2)C(C)C)cc1 [Compound 89, (2S,4R)-4-hydroxy-1-((R)-2-(3-(2-(4-(3-(2-hydroxyphenyl)-6-methylthieno[2,3-c]pyridazin-5-yl)piperidin-1-yl)ethoxy)isoxazol-5-yl)-3-methylbutanoyl)-N-((S)-1-(4-(4-methylthiazol-5-yl)phenyl)ethyl)pyrrolidine-2-carboxamide] | C (“C” indicates maximum degradation < 50%) | ≥ 1000 nM | < 50% | ≥ 1000 nM |
| Cc1ncsc1-c1ccc([C@H](C)NC(=O)[C@@H]2C[C@@H](O)CN2C(=O)[C@@H](c2cc(OCCN3CCC(c4sc5nnc(-c6ccccc6O)cc5c4Cl)CC3)no2)C(C)C)cc1 [Compound 90, (2S,4R)-1-((R)-2-(3-(2-(4-(5-chloro-3-(2-hydroxyphenyl)thieno[2,3-c]pyridazin-6-yl)piperidin-1-yl)ethoxy)isoxazol-5-yl)-3-methylbutanoyl)-4-hydroxy-N-((S)-1-(4-(4-methylthiazol-5-yl)phenyl)ethyl)pyrrolidine-2-carboxamide] | A (“A” indicates maximum degradation ≥ 75%) | ≥ 10 nM | < 50% | ≥ 1000 nM |
